Patent US20050187608A1, “Radioprotective compound coating for medical devices” (priority 2004, published 2005)
Marks after values point to notes of the source that are not given here.

What was measured:
[1] = tested on: neointimal hyperplasia and inflammation; assay: Rapamycin compared with dexamethasone delivered from a stent; format: in vivo; conditions: for Inflammation Score: uncoated 0.97 ± 1.00; for Neointimal Area: uncoated 5.24 ± 1.65; for % Area Stenosis: uncoated 54 ± 19
Description: Dexamethasone, a potent steroidal anti-inflammatory agent, was used as a reference standard.

[2] = In vivo release kinetics from rapamycin/mycophenolic acid coatings, porcine pharmacokinetics studies
Description: The topcoat is two hundred micro grams.

[3] = tested on: human coronary artery smooth muscle cells; assay: Anti-proliferative activity of rapamycin with varying concentrations of mycophenolic acid; format: cell-based; conditions: non-synchronized cultured human coronary artery smooth muscle cells, two percent fetal bovine serum, mycophenolic acid zero to one thousand nano molar, FIG. 52
Description: The multiple curves represent various concentrations of mycophenolic acid ranging from zero to one thousand nano molar concentrations. […] This potentiation observed in cultured coronary artery smooth muscle cells preferably translates to an enhancement in anti-restenotic efficacy following vascular injury and a reduction in the required amount of either agent to achieve the desired anti-restenotic effect.

[4] = tested on: human coronary artery smooth muscle cell proliferation; assay: In vitro cell culture study of coronary artery smooth muscle cell proliferation; format: cell-based
Description: FIG. 51 is a graph of the inhibition of coronary artery smooth muscle cells by trichostatin A in a cell culture study.

SMILES: C[C@@H]1C[C@H]2[C@@H]3CCC4=CC(=O)C=C[C@]4(C)[C@@]3(F)[C@@H](O)C[C@]2(C)[C@@]1(O)C(=O)CO [Dexamethasone, dexamethasone]
- Inflammation Score [1]: 0.39 ± 0.24
- Neointimal Area [1]: 4.31 ± 3.02 mm^2
- % Area Stenosis [1]: 45 ± 31%

SMILES: CO[C@H]1C[C@@H]2CC[C@@H](C)[C@@](O)(O2)C(=O)C(=O)N2CCCC[C@H]2C(=O)O[C@H]([C@H](C)C[C@@H]2CC[C@@H](O)[C@H](OC)C2)CC(=O)[C@H](C)/C=C(\C)[C@@H](O)[C@@H](OC)C(=O)[C@H](C)C[C@H](C)/C=C/C=C/C=C/1C [Rapamycin, rapamycin]
- in vivo release rate ([2]; PVDF basecoat 600 μg, rapamycin and mycophenolic acid equally two thirds by weight, 200 μg PVDF topcoat, FIG. 56): slower release rate than that of mycophenolic acid
- Inflammation Score [1]: 0.13 ± 0.19
- Neointimal Area [1]: 2.47 ± 0.94* mm^2
- % Area Stenosis [1]: 26 ± 10 %

SMILES: COc1c(C)c2c(c(O)c1C/C=C(\C)CCC(=O)O)C(=O)OC2 [mycophenolic acid]
- in vivo release of mycophenolic acid from the basecoat ([2]; EVA/BMA basecoat 600 μg with 30% rapamycin and 30% mycophenolic acid, BMA topcoat 0/100/200 μg, FIG. 54): elutes more completely over a shorter duration than the rapamycin
- effect on the anti-proliferative rapamycin dose response curve [3]: potentiates the anti-proliferative activity of rapamycin

SMILES: CC(/C=C/C(=O)NO)=C\[C@@H](C)C(=O)c1ccc(N(C)C)cc1 [trichostatin A]
- inhibition of human coronary artery smooth muscle cell proliferation ([4]; FIG. 51): completely inhibit
- IC50 ([4]; human coronary artery smooth muscle cells, read-out: anti-proliferative IC50): ~6 nM
